Legend:
[1] = tested on: Penicillium chrysogenum; test: Minimum inhibitory concentration (MIC), malt yeast agar; assay type: cell-based, Penicillium chrysogenum (ATCC 9480); details: Pc, 30° C., 72 hours (fungi)
Protocol: (§1) The minimum inhibitory concentration (MIC) for compounds of this invention, listed in Table I, is determined for 9 bacteria, using nutrient agar, and 7 yeast and fungi, using malt yeast agar. A one percent solution of a compound is prepared in a mixture of acetone and water. Nutrient agar is prepared at pH 6.8, representing a neutral medium, and at pH 8.2, representing an alkaline medium. The nutrient agars are prepared by adding 23 g of nutrient agar to one-liter of deionized water. In addition, the alkaline medium is prepared by adjusting a 0.04M solution of N-[tris-(hydroxymethyl)methyl]-glycine buffered deionized water with concentrated sodium hydroxide to a pH of […]. Malt yeast agar is prepared by adding 3 g yeast extract and 45 g malt agar per liter of deionized water. The specific agar is dispensed in 30 ml aliquots into 25×200 mm test tubes, capped and autoclaved for 15 minutes at 115° C. The test tubes containing the agar are cooled in a water bath until the temperature of the agar is 48° C. […]
(§2) The inoculation with the yeast and fungi is accomplished as follows. […] The petri plates are incubated at 30° C. and read after 48 hours for yeast and 72 hours for fungi. […]

[2] = tested on: Proteus vulgaris; test: Minimum inhibitory concentration (MIC), nutrient agar; assay type: cell-based, Proteus vulgaris (ATCC 881); details: Pv, 30° C., 48 hours
Protocol: (§3) The minimum inhibitory concentration (MIC) for compounds of this invention, listed in Table I, is determined for 9 bacteria, using nutrient agar, and 7 yeast and fungi, using malt yeast agar. A one percent solution of a compound is prepared in a mixture of acetone and water. Nutrient agar is prepared at pH 6.8, representing a neutral medium, and at pH 8.2, representing an alkaline medium. The nutrient agars are prepared by adding 23 g of nutrient agar to one-liter of deionized water. In addition, the alkaline medium is prepared by adjusting a 0.04M solution of N-[tris-(hydroxymethyl)methyl]-glycine buffered deionized water with concentrated sodium hydroxide to a pH of […]. Malt yeast agar is prepared by adding 3 g yeast extract and 45 g malt agar per liter of deionized water. The specific agar is dispensed in 30 ml aliquots into 25×200 mm test tubes, capped and autoclaved for 15 minutes at 115° C. The test tubes containing the agar are cooled in a water bath until the temperature of the agar is 48° C. Then, an appropriate amount of the one percent solution of the compound is added (except in the controls where no compound is added) to the respective test tubes so that the final concentrations are 500, 250, 100, 50, 25, 10, 5, 2.5, 1.0 and zero parts per million of the compound in the agar, thus having a known concentration of compound dispersed therein. The contents of the test tubes are then transferred to respective petri plates. After drying for 24 hours, the petri plates containing nutrient agar are inoculated with bacteria and those containing malt yeast agar are inoculated with yeast and fungi.
(§4) The inoculation with bacteria is accomplished by using the following procedure. Twenty-four hour-cultures of each of the bacteria are prepared by incubating the respective bacteria in tubes containing nutrient broth for 24 hours at 30° C. in a shaker. Dilutions of each of the 24 hour-cultures are made so that nine separate suspensions (one for each of the nine test bacteria) are made, each containing 10^8 colony forming units (CFU) per milliliter of suspension of a particular bacteria. Aliquots of 0.3 ml of each of the bacterial suspensions are used to fill the individual wells of Steer's Replicator. For each microbial suspension 0.3 ml was used to fill three wells (i.e., three wells of 0.3 ml each) […] to inoculate both the neutral and alkaline pH nutrient agar petri plates.
(§5) The inoculated petri plates are incubated at 30° C. for 48 hours and then read to determine if the compound which is incorporated into the agar prevented growth of the respective bacteria. […]

[3] = tested on: Enterobacter aerogenes; test: as above; assay type: cell-based, Enterobacter aerogenes (ATCC 13048); details: Ea, 30° C., 48 hours
Protocol: as §3, §4, §5

[4] = tested on: Pseudomonas aeruginosa (Pa); test: as above; assay type: cell-based, Pseudomonas aeruginosa (ATCC 10145); details: 30° C., 48 hours
Protocol: as §3, §4, §5

[5] = tested on: Bacillus subtilis; test: as above; assay type: cell-based, Bacillus subtilis (ATCC 8473); details: Bs, 30° C., 48 hours
Protocol: as §3, §4, §5

[6] = tested on: Escherichia coli; test: as above; assay type: cell-based, Escherichia coli (ATCC 11229); details: Ec, 30° C., 48 hours
Protocol: as §3, §4, §5

[7] = tested on: Saccharomyces cerevisiae; test: Minimum inhibitory concentration (MIC), malt yeast agar; assay type: cell-based, Saccharomyces cerevisiae (ATCC 4105); details: Sc, 30° C., 48 hours (yeast)
Protocol: as §1, §2

[8] = tested on: Trichoderma viride; test: as above; assay type: cell-based, Trichoderma viride (ATCC 8678); details: Tv, 30° C., 72 hours (fungi)
Protocol: as §1, §2

[9] = tested on: Candida albicans; test: as above; assay type: cell-based, Candida albicans (ATCC 10231); details: Ca, 30° C., 48 hours (yeast)
Protocol: as §1, §2

[10] = tested on: Fusarium oxysporum; test: as above; assay type: cell-based, Fusarium oxysporum (ATCC 48112); details: Fo, 30° C., 72 hours (fungi)
Protocol: as §1, §2

[11] = tested on: Staphylococcus aureus; test: Minimum inhibitory concentration (MIC), nutrient agar; assay type: cell-based, Staphylococcus aureus (ATCC 6538); details: Sa, 30° C., 48 hours
Protocol: as §3, §4, §5

[12] = tested on: Salmonella choleraesuis; test: as above; assay type: cell-based, Salmonella choleraesuis (ATCC 10708); details: Sc, 30° C., 48 hours
Protocol: as §3, §4, §5

[13] = tested on: Klebsiella pneumoniae; test: as above; assay type: cell-based, Klebsiella pneumoniae (ATCC 8308); details: Kp, 30° C., 48 hours
Protocol: as §3, §4, §5

[14] = tested on: Pseudomonas aeruginosa (PRD-10); test: as above; assay type: cell-based, Pseudomonas aeruginosa (ATCC 15442); details: 30° C., 48 hours
Protocol: as §3, §4, §5

[15] = tested on: Aspergillus niger; test: Minimum inhibitory concentration (MIC), malt yeast agar; assay type: cell-based, Aspergillus niger (ATCC 16404); details: An, 30° C., 72 hours (fungi)
Protocol: as §1, §2

SMILES | Minimum Inhibitory Concentration (MIC) [1] [ppm] | Minimum Inhibitory Concentration (MIC) ([2]; pH 6.8, nutrient agar) [ppm] | Minimum Inhibitory Concentration (MIC) ([2]; pH 8.2, nutrient agar) [ppm] | Minimum Inhibitory Concentration (MIC) ([3]; pH 6.8, nutrient agar) [ppm] | Minimum Inhibitory Concentration (MIC) ([3]; pH 8.2, nutrient agar) [ppm] | Minimum Inhibitory Concentration (MIC) ([4]; pH 6.8, nutrient agar) [ppm] | Minimum Inhibitory Concentration (MIC) ([4]; pH 8.2, nutrient agar) [ppm] | Minimum Inhibitory Concentration (MIC) ([5]; pH 6.8, nutrient agar) [ppm] | Minimum Inhibitory Concentration (MIC) ([5]; pH 8.2, nutrient agar) [ppm] | Minimum Inhibitory Concentration (MIC) ([6]; pH 6.8, nutrient agar) [ppm] | Minimum Inhibitory Concentration (MIC) ([6]; pH 8.2, nutrient agar) [ppm] | Minimum Inhibitory Concentration (MIC) [7] [ppm] | Minimum Inhibitory Concentration (MIC) [8] [ppm] | Minimum Inhibitory Concentration (MIC) [9] [ppm] | Minimum Inhibitory Concentration (MIC) [10] [ppm] | Minimum Inhibitory Concentration (MIC) ([11]; pH 6.8, nutrient agar) [ppm] | Minimum Inhibitory Concentration (MIC) ([11]; pH 8.2, nutrient agar) [ppm] | Minimum Inhibitory Concentration (MIC) ([12]; pH 6.8, nutrient agar) [ppm] | Minimum Inhibitory Concentration (MIC) ([12]; pH 8.2, nutrient agar) [ppm] | Minimum Inhibitory Concentration (MIC) ([13]; pH 6.8, nutrient agar) [ppm] | other results
COP(=O)(C=C(Cl)C#N)OC [Compound A, Phosphonic acid, (2-chloro-2-cyanoethenyl)-dimethyl ester] | 50 | 250 | > 500 | 500 | > 500 | 500 | > 500 | 25 | 500 | 250 | > 500 | 100 | 100 | 100 | 50 | 50 | > 10 | 250 | > 500 | 250 | Minimum Inhibitory Concentration (MIC) ([13]; pH 8.2, nutrient agar): 500 ppm; Minimum Inhibitory Concentration (MIC) ([14]; pH 6.8, nutrient agar): 500 ppm; Minimum Inhibitory Concentration (MIC) ([14]; pH 8.2, nutrient agar): > 500 ppm; Minimum Inhibitory Concentration (MIC) [15]: 250 ppm
CCOP(=O)(C=C(Cl)C#N)OCC [Compound B, Phosphonic acid, (2-chloro-2-cyanoethenyl)-diethyl ester] | 100 | 25 | > 500 | 100 | > 500 | 250 | > 500 | 25 | > 500 | 50 | > 500 | 250 | 100 | 100 | 50 | 25 | > 500 | 25 | > 500 | 50 | Minimum Inhibitory Concentration (MIC) ([13]; pH 8.2, nutrient agar): > 500 ppm; Minimum Inhibitory Concentration (MIC) ([14]; pH 6.8, nutrient agar): 250 ppm; Minimum Inhibitory Concentration (MIC) ([14]; pH 8.2, nutrient agar): > 500 ppm; Minimum Inhibitory Concentration (MIC) [15]: 250 ppm

From US5206227A, “Composition and use of phosphonic acid, (2-halo-2-cyanoethenyl)-dialkyl esters as antimicrobials” (priority 1992, dated 1993)
